Source: patent US9758489B2, “Azepane derivatives and methods of treating hepatitis B infections” (Novira Therapeutics, Inc., priority 2013, dated 2017)

Columns and labels:
[1] = test system: HBV replication in HepG2-2.2.15 cells; assay: Dot-blot assay: inhibition of HBV replication in HBV-producing hepatoma cell line; format: cell-based; settings: Hepatitis B virus, 144 h, six days, reduction in HBV DNA levels
Experimental: Compounds active in the HBV assembly assay are tested for their activity and toxicity in cellular assay. In the first anti-viral assay, the ability of compounds to inhibit HBV replication in an HBV-producing hepatoma cell line using the dot-blot method is evaluated.
Briefly, confluent monolayers of HepG2-2.2.15 cells are incubated with complete medium containing various concentrations of a test compound. Three days later, the culture medium is replaced with fresh medium containing the appropriately diluted test compound. Six days following the initial administration of the test compound, the cell culture supernatant is collected, and cell lysis is performed. The samples are applied onto Nylos membranes and DNA is immobilized to the membrane by UV cross-linking. After pre-hybridization, the HBV probe is added and the hybridization is performed overnight. The membranes are exposed to the Kodak films; antiviral activity is calculated from the reduction in HBV DNA levels (EC50). The EC50 for antiviral activity is calculated from the dose response curves of active compounds. Assay performance over time is monitored by the use of the standard positive control compounds ETV, BAY 41-4109, and HAP-1.
In the first anti-viral assay, the ability of compounds to inhibit HBV replication in an HBV-producing hepatoma cell line using the dot-blot method was evaluated.
Confluent monolayers of HepG2-2.2.15 cells were incubated with complete medium containing various concentrations of a test compound. Three days later, the culture medium was replaced with fresh medium containing the appropriately diluted test compound. Six days following the initial administration of the test compound, the cell culture supernatant was collected, and cell lysis was performed. The samples were applied onto Nylos membranes and DNA was immobilized to the membrane by UV cross-linking. After pre-hybridization, the HBV probe was added and the hybridization was performed overnight. The membranes were exposed to the Kodak films; antiviral activity was calculated from the reduction in HBV DNA levels (EC50). The EC50 for antiviral activity was calculated from the dose response curves of active compounds. Assay performance over time was monitored by the use of the standard positive control compounds ETV, BAY 41-4109, and HAP-1.

[2] = target: HBV C150Bo protein (mutant C150 HBV capsid protein labeled with BoDIPY-FL) (Hepatitis B virus genotype D subtype adw, UniProt P03147, C107A/C48A/C61A/R150C); assay: HBV assembly assay (fluorescence quenching in vitro capsid assembly); format: biochemical; settings: for Activity (HBV assembly assay): at about 10 μM, 50 mM Hepes pH 7.5, 150 mM NaCl, 1 hour at room temperature; for IC50: HBV assembly assay, read-out: Activity (HBV assembly potency, IC50)
HBV C150Bo protein (mutant C150 HBV capsid protein labeled with BoDIPY-FL), sequence (P03147 1-150 C48A/C61A/C107A/R150C): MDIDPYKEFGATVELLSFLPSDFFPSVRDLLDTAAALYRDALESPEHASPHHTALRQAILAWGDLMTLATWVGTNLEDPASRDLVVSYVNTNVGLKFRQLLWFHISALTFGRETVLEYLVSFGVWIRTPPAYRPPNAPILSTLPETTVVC

With `CC1CN(C(=O)Nc2ccc(F)c(Cl)c2)CCN(c2c(Cl)cncc2Cl)C1` (stereo not shown) [Compound 097] the inhibition at 10 µM [1] was > 50% and the “Activity (HBV assembly assay)” value [2] was “+ (>50% activity at about 10 μM)”.

In the case of `O=C(Nc1ccc(F)c(Cl)c1)N1CCCN(c2c(Cl)cncc2C2CC2)CC1` [Compound 109], the inhibition at 10 µM [1] is reported as > 50%, the IC50 [2] is reported as < 20 µM and the “Activity (HBV assembly assay)” value [2] is reported as “+ (>50% activity at about 10 μM)”.

In the case of `O=C(Nc1ccc(F)c(Cl)c1)N1CCCN(c2c(Cl)cncc2CO)CC1` [Compound 126], the inhibition at 10 µM [1] is reported as > 50%.

In the case of `O=C(Nc1ccc(F)c(Cl)c1)N1CC2CC(C1)N(c1c(Cl)cncc1Cl)C2` (stereo not shown) [Compound 065], the inhibition at 10 µM [1] is reported as > 50%.

In the case of `O=C(Nc1ccc(F)c(Cl)c1)N1CCCN(c2c(Cl)cncc2Cl)CC1Cc1ccccc1` (stereo not shown) [Compound 091], the IC50 [2] is reported as < 20 µM and the “Activity (HBV assembly assay)” value [2] is reported as “+ (>50% activity at about 10 μM)”.

`O=C(Nc1ccc(F)c(F)c1)C1CCCN(c2c(Cl)cncc2Cl)CC1` (stereo not shown) [Compound 056] was tested, and the inhibition at 10 µM [1] was > 50% and the “Activity (HBV assembly assay)” value [2] was “+ (>50% activity at about 10 μM)”.

In the case of `O=C(Nc1ccc(F)c(F)c1)N1CCCN(c2c(Cl)cncc2Cl)CC1` [Compound 004], the “Activity (HBV assembly assay)” value [2] is reported as “+ (>50% activity at about 10 μM)”.

For `O=C(Nc1ccc(F)c(Cl)c1)N1CCCN(c2ccnc(Cl)c2Cl)CC1` [Compound 041], the inhibition at 10 µM [1] was > 50%.

For `Cc1cncc(Cl)c1N1CCCN(C(=O)Nc2ccc(F)c(Cl)c2)CC1` [Compound 044], the inhibition at 10 µM [1] was > 50% and the “Activity (HBV assembly assay)” value [2] was “+ (>50% activity at about 10 μM)”.

For `O=C(Nc1ccc(F)c(Cl)c1)N1C2CCC1CN(c1c(Cl)cncc1Cl)CC2` (stereo not shown) [Compound 121], the inhibition at 10 µM [1] was > 50%.

`CCOC1CN(C(=O)Nc2ccc(F)c(Cl)c2)CCN(c2c(Cl)cncc2Cl)C1` (stereo not shown) [Compound 131] was tested, and the inhibition at 10 µM [1] was > 50%.

For `CCc1cncc(Cl)c1N1CCCN(C(=O)Nc2cccc(Cl)c2)CC1` [Compound 108], the IC50 [2] was < 20 µM and the “Activity (HBV assembly assay)” value [2] was “+ (>50% activity at about 10 μM)”.

With `O=C(Nc1ccc(F)c(Cl)c1)N1CCCN(c2c(Cl)cncc2Cl)CC1` [Compound 040] the inhibition at 10 µM [1] was > 50%.

For `COC(=O)C1CN(C(=O)Nc2ccc(F)c(Cl)c2)CCN(c2c(Cl)cncc2Cl)C1` (stereo not shown) [Compound 098], the “Activity (HBV assembly assay)” value [2] was “+ (>50% activity at about 10 μM)”.

For `Cc1cncc(C)c1N1CCCN(C(=O)Nc2ccc(F)c(Cl)c2)CC1` [Compound 047], the inhibition at 10 µM [1] was > 50% and the “Activity (HBV assembly assay)” value [2] was “+ (>50% activity at about 10 μM)”.

For `O=C(Nc1ccc(F)c(Cl)c1)N1CCCN(c2c(Cl)cncc2Cc2ccccc2)CC1` [Compound 115], the inhibition at 10 µM [1] was > 50%.

In the case of `COCCc1cncc(Cl)c1N1CCCN(C(=O)Nc2ccc(F)c(Cl)c2)CC1` [Compound 129], the inhibition at 10 µM [1] is reported as > 50%.

`CC1CCN(c2c(Cl)cncc2Cl)CCN1C(=O)Nc1ccc(F)c(Cl)c1` (stereo not shown) [Compound 092] was tested, and the inhibition at 10 µM [1] was > 50%, the IC50 [2] was < 20 µM and the “Activity (HBV assembly assay)” value [2] was “+ (>50% activity at about 10 μM)”.

`O=C(Nc1ccc(Cl)c(F)c1)N1CCCN(c2c(Cl)cncc2Cl)CC1` [Compound 049] was tested, and the inhibition at 10 µM [1] was > 50%.

`CCc1cncc(Cl)c1N1CCCN(C(=O)Nc2ccc(F)c(Cl)c2)CC1` [Compound 107] was tested, and the inhibition at 10 µM [1] was > 50%, the IC50 [2] was < 20 µM and the “Activity (HBV assembly assay)” value [2] was “+ (>50% activity at about 10 μM)”.

For `O=C(Nc1cccc(Cl)c1)N1CCCN(c2c(Cl)cncc2C2CC2)CC1` [Compound 110], the IC50 [2] was < 20 µM and the “Activity (HBV assembly assay)” value [2] was “+ (>50% activity at about 10 μM)”.

With `O=C(Nc1ccc(F)c(Cl)c1)N1CCN(c2c(Cl)cncc2Cl)CC(O)C1` (stereo not shown) [Compound 100] the inhibition at 10 µM [1] was > 50% and the “Activity (HBV assembly assay)” value [2] was “+ (>50% activity at about 10 μM)”.

For `COC1CN(C(=O)Nc2ccc(F)c(Cl)c2)CCN(c2c(Cl)cncc2Cl)C1` (stereo not shown) [Compound 130], the inhibition at 10 µM [1] was > 50%.

In the case of `O=C(Nc1ccc(F)c(Cl)c1)C1CCCN(c2c(Cl)cncc2Cl)CC1` (stereo not shown) [Compound 055], the “Activity (HBV assembly assay)” value [2] is reported as “+ (>50% activity at about 10 μM)”.

`O=C(Nc1ccc(F)c(Cl)c1)N1CCCN(c2c(Cl)cncc2Cl)CC1` [Compound 005] was tested, and the “Activity (HBV assembly assay)” value [2] was “+ (>50% activity at about 10 μM)”.

In the case of `O=C(Nc1ccc(F)c(Cl)c1)N1CC2CC1CCN2c1c(Cl)cncc1Cl` (stereo not shown) [Compound 077], the inhibition at 10 µM [1] is reported as > 50%.

With `O=C(Nc1ccc(F)c(F)c1)N1C2CCC1CN(c1c(Cl)cncc1Cl)CC2` (stereo not shown) [Compound 120] the inhibition at 10 µM [1] was > 50% and the “Activity (HBV assembly assay)” value [2] was “+ (>50% activity at about 10 μM)”.

In the case of `O=C(Nc1cccc(Cl)c1)N1CCCN(c2c(Cl)cncc2Cl)CC1` [Compound 010], the inhibition at 10 µM [1] is reported as > 50% and the “Activity (HBV assembly assay)” value [2] is reported as “+ (>50% activity at about 10 μM)”.

In the case of `O=C(Nc1ccc(F)c(Cl)c1)N1CCN(c2c(Cl)cncc2Cl)CC(CO)C1` (stereo not shown) [Compound 099], the inhibition at 10 µM [1] is reported as > 50% and the “Activity (HBV assembly assay)” value [2] is reported as “+ (>50% activity at about 10 μM)”.

`O=C(Nc1cccc(F)c1)N1CCCN(c2c(Cl)cncc2Cl)CC1` [Compound 011] was tested, and the inhibition at 10 µM [1] was > 50% and the “Activity (HBV assembly assay)” value [2] was “+ (>50% activity at about 10 μM)”.

For `O=C(Nc1ccc(F)c(Cl)c1)N1CCCN(c2c(F)cncc2Cl)CC1` [Compound 045], the inhibition at 10 µM [1] was > 50% and the “Activity (HBV assembly assay)” value [2] was “+ (>50% activity at about 10 μM)”.

In the case of `CC1CN(c2c(Cl)cncc2Cl)CCCN1C(=O)Nc1ccc(F)c(Cl)c1` (stereo not shown) [Compound 087], the inhibition at 10 µM [1] is reported as > 50%.

For `O=C(Nc1cc(F)c(F)c(F)c1)N1CCCN(c2c(Cl)cncc2Cl)CC1` [Compound 025], the inhibition at 10 µM [1] was > 50%.
